# From patent US20070036793A1, “Methods for use of an lkb1/strad7mo25 complex” (priority 2003, published 2007)
# “Also recorded” adds a separate entry of the source.
# Experiments:
# AMPK = molecular target: T1, AMPK (Homo sapiens, UniProt Q13131); test: Activation and Thr-172 phosphorylation of endogenous AMPK in HeLa cells with or without stably expressed LKB1; type: cell-based; conditions: 2 mM AICA riboside or 10 mM phenformin, 60 min
# T1 construct: Endogenous AMPK was immunoprecipitated from the cell extracts and assayed; endogenous in cells; host or cells: HeLa cells (control, or stably expressing wild type or kinase-dead LKB1)
# T1 sequence (Q13131 whole entry): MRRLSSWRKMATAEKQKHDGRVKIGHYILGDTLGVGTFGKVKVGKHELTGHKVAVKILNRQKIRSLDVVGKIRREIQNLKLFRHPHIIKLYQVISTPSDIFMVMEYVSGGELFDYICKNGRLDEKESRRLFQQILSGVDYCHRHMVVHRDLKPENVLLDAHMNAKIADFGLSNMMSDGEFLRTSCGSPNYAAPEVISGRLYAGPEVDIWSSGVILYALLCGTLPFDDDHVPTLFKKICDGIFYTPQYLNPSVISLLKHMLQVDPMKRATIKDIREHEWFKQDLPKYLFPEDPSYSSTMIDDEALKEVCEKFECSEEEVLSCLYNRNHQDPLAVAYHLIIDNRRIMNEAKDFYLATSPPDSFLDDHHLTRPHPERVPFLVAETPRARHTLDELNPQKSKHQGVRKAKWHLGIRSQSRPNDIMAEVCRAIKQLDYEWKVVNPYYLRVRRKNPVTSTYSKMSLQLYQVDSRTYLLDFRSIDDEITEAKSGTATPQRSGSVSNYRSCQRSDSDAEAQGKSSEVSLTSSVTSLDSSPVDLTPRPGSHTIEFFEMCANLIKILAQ
# T1 sequence (Q9Y478 2-270 partner limits assumed): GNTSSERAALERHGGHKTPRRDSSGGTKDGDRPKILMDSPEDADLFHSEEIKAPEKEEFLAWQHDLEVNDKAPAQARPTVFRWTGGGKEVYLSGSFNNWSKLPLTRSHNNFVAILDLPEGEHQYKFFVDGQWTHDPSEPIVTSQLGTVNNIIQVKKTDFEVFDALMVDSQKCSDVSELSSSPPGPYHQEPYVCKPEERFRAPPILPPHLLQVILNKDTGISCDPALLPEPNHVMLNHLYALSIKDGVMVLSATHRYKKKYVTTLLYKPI
# T1 sequence (P54619 whole entry partner): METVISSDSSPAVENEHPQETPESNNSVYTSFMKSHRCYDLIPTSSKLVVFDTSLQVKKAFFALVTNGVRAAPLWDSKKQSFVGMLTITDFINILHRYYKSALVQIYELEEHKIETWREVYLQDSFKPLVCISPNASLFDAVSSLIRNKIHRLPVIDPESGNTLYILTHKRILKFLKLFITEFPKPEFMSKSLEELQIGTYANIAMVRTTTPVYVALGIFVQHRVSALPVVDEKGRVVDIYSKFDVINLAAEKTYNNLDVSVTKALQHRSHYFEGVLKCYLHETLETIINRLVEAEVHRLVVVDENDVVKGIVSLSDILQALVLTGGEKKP
# Procedure: (§1) FIG. 18: Restoration of the ability of AMPK to be activated by AICA riboside and phenformin in HeLa cells by expression of LKB1. Control HeLa cells (lanes 1, 2, 3), HeLa cells expressing wild type (WT) LKB1 (lanes 4, 5, 6) and kinase dead (D194A, KD) mutant LKB1 (lanes 7, 8, 9) were either left unstimulated or treated with 2 mM AICA riboside or 10 mM phenformin for 60 min and lysed. (A) Endogenous AMPK was immunoprecipitated from the cell extracts and assayed. (B) The cell lysates was immunoblotted with antibodies recognising AMPKα1 phosphorylated at Thr172 or total AMPKα1; the results were analysed using the LI-COR IR Odyssesy™ imager as described under Materials and Methods, and are expressed as a ratio of the two signals. (C) The cell lysates was analysed by Western blotting and the membranes probed with antibodies recognising ACC phosphorylated at Ser-79, or streptavidin to determine total […]. The results were analysed using the LI-COR IR imager as for (B).
# AMPK [14]and AMPKK [34] were assayed, and units defined, as described previously. Rapid lysis of cells for AMPK assays was as described previously. Assays were carried out in triplicate and results are expressed as mean ± standard deviation.
# To analyse phosphorylation of ACC, samples were analysed by SDS-PAGE, transferred to nitrocellulose (BioRad) and incubated in Odyssey™ Blocking buffer containing 0.2% Tween-20 for 1 h. Anti-pACC antibody (1.46 μg/ml in blocking buffer) was then added and left shaking for 1 h. The membranes were washed 6×5 min with TBS (10 mM Tris-HCl, pH 7.4, 0.5M NaCl) plus Tween-20 (0.2%). The membranes were immersed in blocking buffer containing 0.2% Tween-20 and 1 μg/ml anti-sheep IgG conjugated to JR dye 680 (Molecular Probes, Leiden, The Netherlands) and 1 μg/ml streptavidin conjugated to IR Dye 800 (Rockland Inc., Philadelphia, Pa.) and left shaking for 1 h, protected from light. The membranes were then washed 6×5 min using TBS-Tween (0.2%) and 1×5 min in PBS. The membranes were scanned in two different channels using the Odyssey™ IR imager, the results quantified using Odyssey™ software and expressed as a ratio of the signal obtained with the pACC antibody to that obtained with streptavidin. Analysis of phosphorylation of GST-α1 catalytic domain was similar except that the 4-12% Bis-Tris gels were used, and the membranes were simultaneously probed for 1 h with the sheep anti-pT172 and anti-AMPKα1-catalytic domain antibodies, directly labelled with the IR dye 680 and IR Dye 800 respectively, according to manufacturers' instructions.
# [1] = test system: acetyl-CoA carboxylase (ACC); test: Phosphorylation of acetyl-CoA carboxylase at Ser-79 in HeLa cells expressing LKB1; type: cell-based, human; conditions: HeLa cells stably expressing wild type LKB1; 2 mM AICA riboside or 10 mM phenformin, 60 min
# Procedure: as §1
# To analyse phosphorylation of ACC, samples were analysed by SDS-PAGE, transferred to nitrocellulose (BioRad) and incubated in Odyssey™ Blocking buffer containing 0.2% Tween-20 for 1 h. […] The membranes were scanned in two different channels using the Odyssey™ IR imager, the results quantified using Odyssey™ software and expressed as a ratio of the signal obtained with the pACC antibody to that obtained with streptavidin. […]
# [2] = HeLa cells stably expressing wild type LKB1
# [3] = control HeLa cells not expressing LKB1
Compound,activation of AMPK (AMPK; [2]),phosphorylation of Thr-172 on the AMPKα subunit (AMPK; [2]),activation of AMPK (AMPK; [3]),phosphorylation of downstream target ACC (Ser-79) [1]
[H]/N=C(/N)N/C(=N/[H])NCCc1ccccc1 [phenformin],robust activation; also recorded: larger activation of AMPK,restored,neither AICA riboside nor phenformin activated AMPK,restored
"NC(=O)c1ncn([C@@H]2O[C@H](CO)[C@@H](O)[C@H]2O)c1N [AICA riboside, 5-aminoimidazole-4-carboxamide (AICA) riboside]",robust activation,restored,neither AICA riboside nor phenformin activated AMPK,larger effect than phenformin; also recorded: restored
